# pIC50: −log10 of the molar value. Several values for one entry are separate records, joined by “and”; a condition that tells them apart may be missing. Equal values may be shown once. Where a name gives a salt, the structure may show the parent alone.
# System: not given
# Assay: not given
# Details: not given
row,Structure (SMILES),melting point
1,"CCn1c(N)c(C(=O)NC)c(=O)c2ccc(C#CC(C)(C)OCC(N)=O)nc21 [Compound 6, 2-Amino-7-[3-(2-amino-2-oxoethoxy)-3-methylbut-1-yn-1-yl]-1-ethyl-N-methyl-4-oxo-1,4-dihydro-1,8-naphthyridine-3-carboxamide]",204 °C
2,"CCn1c(N)c(C(=O)NC)c(=O)c2ccc(C#CC(C)(COC)OC)nc21 (racemic) [Compound 1, (±)-2-Amino-7-(3,4-dimethoxy-3-methylbut-1-yn-1-yl)-1-ethyl-N-methyl-4-oxo-1,4-dihydro-1,8-naphthyridine-3-carboxamide]",185 to 187 °C
3,"CCn1c(N)c(C(=O)NC)c(=O)c2ccc(C#CC(C)(C)N)nc21 (as salt: hydrochloride) [Compound 4, 2-Amino-7-(3-amino-3-methylbut-1-yn-1-yl)-1-ethyl-N-methyl-4-oxo-1,4-dihydro-1,8-naphthyridine-3-carboxamide hydrochloride]",293 °C
4,"CCn1c(N)c(C(=O)NC)c(=O)c2ccc(C#CCOC)nc21 [Compound 5, 2-amino-1-ethyl-7-(3-methoxyprop-1-yn-1-yl)-N-methyl-4-oxo-1,4-dihydro-1,8-naphthyridine-3-carboxamide]",233 °C
5,"CCn1c(N)c(C(=O)NC)c(=O)c2ccc(C#CCNC(=O)OC)nc21 [Compound 2, Methyl {3-[7-amino-8-ethyl-6-(methylcarbamoyl)-5-oxo-5,8-dihydro-1,8-naphthyridin-2-yl]prop-2-yn-1-yl}carbamate]",255 °C and 250 °C

# Target: T1, VEGFR-3-TK (Homo sapiens, UniProt P35916)
# T1 construct: purchased Cell Signaling 7790
# T1 sequence (P35916 800-1297 limits assumed): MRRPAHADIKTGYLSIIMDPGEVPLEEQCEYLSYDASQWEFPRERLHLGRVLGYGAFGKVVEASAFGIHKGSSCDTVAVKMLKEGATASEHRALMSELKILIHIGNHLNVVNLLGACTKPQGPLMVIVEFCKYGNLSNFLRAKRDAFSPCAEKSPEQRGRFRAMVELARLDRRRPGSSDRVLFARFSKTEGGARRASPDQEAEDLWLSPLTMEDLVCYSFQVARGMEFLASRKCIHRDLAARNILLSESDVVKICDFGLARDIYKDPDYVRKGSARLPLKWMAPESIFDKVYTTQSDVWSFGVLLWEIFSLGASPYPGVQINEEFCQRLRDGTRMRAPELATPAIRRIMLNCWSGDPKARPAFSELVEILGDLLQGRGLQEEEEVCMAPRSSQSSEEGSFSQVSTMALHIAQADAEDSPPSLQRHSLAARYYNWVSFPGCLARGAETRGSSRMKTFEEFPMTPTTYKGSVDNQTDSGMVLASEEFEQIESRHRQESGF
# Assay: Measurement of the tyrosine kinase activity of VEGFR-3 by ELISA (phosphorylation of poly Glu-Tyr)
# Assay type: biochemical
# Details: VEGFR-3 ELISA, poly Glu-Tyr substrate, 30 μM ATP, 30 min at ambient temperature; read-out: IC50 (concentration which decreases the total activity of the enzyme by 50%)
# Method: The compounds according to the invention have formed the subject of pharmacological assays which make it possible to determine their inhibitory effect on the VEGFR-3 enzyme.
# Measurement of the Tyrosine Kinase Activity of VEGFR-3 by ELISA
# The effect of the products is quantified by the concentration which decreases the total activity of the enzyme by 50% (IC50). For the determination of the IC50 values, the product is diluted in DMSO with a concentration range which extends from 3 to 1000 nM. The day before the manipulation, 125 μl of the poly Glu-Tyr substrate (250 μg/ml in 1×PBS without Ca^2+ or Mg^2+ or sodium bicarbonate) are deposited in each well of an ELISA plate (for example, an ELISA plate of the SIGMA Protein Tyrosine Kinase Assay kit, Ref. PTK-101). The plate is subsequently covered with an adhesive film and incubated overnight at 37° C. The following day, the wells are emptied by turning the plate over, washed by adding 300 μl of buffer solution (PBS+0.05% Tween 20) and dried by further incubation of the plate for 2 h at 37° C. A 90 μl reaction mixture is deposited onto each well. This mixture comprises the 1× kinase buffer to which 30 μM of ATP and the inhibitor at the desired concentration have been added. […]
row,Structure (SMILES),pIC50
1,"CCn1c(N)c(C(=O)NC)c(=O)c2ccc(C#CC(C)(C)N)nc21 [Compound 4, 2-Amino-7-(3-amino-3-methylbut-1-yn-1-yl)-1-ethyl-N-methyl-4-oxo-1,4-dihydro-1,8-naphthyridine-3-carboxamide hydrochloride]",6.35
2,"CCn1c(N)c(C(=O)NC)c(=O)c2ccc(C#CCOC)nc21 [Compound 5, 2-amino-1-ethyl-7-(3-methoxyprop-1-yn-1-yl)-N-methyl-4-oxo-1,4-dihydro-1,8-naphthyridine-3-carboxamide]",6.46
